# In ChEMBL document CHEMBL1201862, “PubChem BioAssay data set” (2004):
# Active and inactive are the calls of the source.
# Key:
# [1] = molecular target: Voltage-dependent T-type calcium channel subunit alpha-1H (Homo sapiens, UniProt O95180); format: functional;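 note: channel activity triggered by adding a high calcium stimulation buffer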
# [2] = THP-1 cell cytotoxicity, dose response, cytotoxicity control for non-replicating M. tuberculosis project (AID 489025); format: functional
# [3] = HepG2 cell cytotoxicity, dose response, cytotoxicity control for non-replicating M. tuberculosis project (AID 489018); format: functional; conditions: Mycobacterium tuberculosis
# [4] = Vero E6 cell cytotoxicity, dose response, cytotoxicity control for non-replicating M. tuberculosis project, secondary assay (AID 492998); format: functional, VeroE6; conditions: Vero C1008
# [5] = cells; format: functional
# [6] = A Cell Based Secondary Assay To Explore Cytotoxicity of Compounds that Sensitize Mycobacterium Tuberculosis to Beta-Lactam Antibiotics.; format: functional
# [7] = molecular target: Beta-galactosidase (Escherichia coli, UniProt Q8VNN2); assay: PubChem AID 485352; format: functional
# [8] = molecular target: T1, Type-1 angiotensin II receptor (Homo sapiens, UniProt P30556); assay: AT1 receptor antagonists, dose response, selectivity assay for APJ receptor antagonist project, cell-based, uHTS hits (AID 463214); format: functional;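 note: antagonist potency against angiotensin II stimulated AT1 response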
# T1 sequence (P30556 whole entry): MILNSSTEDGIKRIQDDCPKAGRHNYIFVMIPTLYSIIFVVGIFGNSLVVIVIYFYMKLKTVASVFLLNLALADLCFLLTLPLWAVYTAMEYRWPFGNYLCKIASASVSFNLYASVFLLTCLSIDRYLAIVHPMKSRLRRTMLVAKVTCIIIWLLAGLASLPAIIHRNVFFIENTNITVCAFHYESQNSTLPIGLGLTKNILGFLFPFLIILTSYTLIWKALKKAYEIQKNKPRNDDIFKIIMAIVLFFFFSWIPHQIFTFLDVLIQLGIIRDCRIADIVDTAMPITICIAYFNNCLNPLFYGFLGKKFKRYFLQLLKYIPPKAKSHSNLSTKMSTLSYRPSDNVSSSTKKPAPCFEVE
# [9] = Luminescence Cell-Based Dose Retest to Confirm Inhibitors of Cancer Stem Cells. [Related pubchem assays (depositor defined):AID2717, AID2721]; format: functional, Homo sapiens; conditions: Homo sapiens
# [10] = molecular target: T2, Ubiquitin-conjugating enzyme E2 N (Homo sapiens, UniProt P61088); format: functional;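 note: Dose-response confirmation in a TR-FRET assay detecting UBC13-driven polyubiquitin chain formation, inhibition measured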
# T2 sequence (P61088 whole entry): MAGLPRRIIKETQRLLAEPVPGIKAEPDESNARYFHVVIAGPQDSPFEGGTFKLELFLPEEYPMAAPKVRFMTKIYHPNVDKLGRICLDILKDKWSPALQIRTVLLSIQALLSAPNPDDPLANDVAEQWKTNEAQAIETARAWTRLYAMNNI
# [11] = test system: HeLa; assay: HeLa cell cytotoxicity, dose response, cytotoxicity control, 24 h, cherry-picked samples (AID 504726); format: functional, cell-based; conditions: Homo sapiens;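 note: potency for cytotoxicity as loss of luminescence signal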
# [12] = molecular target: DNA dC->dU-editing enzyme APOBEC-3G (Homo sapiens, UniProt Q9HC16); assay: Dose Response confirmation of small molecule APOBEC3G DNA Deaminase Inhibitors via a fluorescence-based single-stranded DNA deaminase assay. [Related pubchem assays (depositor defined):AID493012, AID493028]; format: functional
# [13] = molecular target: Luciferin 4-monooxygenase (Photinus pyralis, UniProt P08659); assay: firefly luciferase enzyme inhibitors, dose response, biochemical, luminescence (AID 1891)
# [14] = molecular target: Cyclin-dependent kinase 5/CDK5 activator 1 (Homo sapiens, UniProt Q00535); assay: CDK5/p35 kinase inhibitors, dose response, biochemical, cherry-picked samples, set 2 (AID 504545)
# [15] = molecular target: T3, CAAX prenyl protease 2 (Saccharomyces cerevisiae S288c, UniProt Q03530); format: biochemical
# T3 sequence (Q03530 whole entry): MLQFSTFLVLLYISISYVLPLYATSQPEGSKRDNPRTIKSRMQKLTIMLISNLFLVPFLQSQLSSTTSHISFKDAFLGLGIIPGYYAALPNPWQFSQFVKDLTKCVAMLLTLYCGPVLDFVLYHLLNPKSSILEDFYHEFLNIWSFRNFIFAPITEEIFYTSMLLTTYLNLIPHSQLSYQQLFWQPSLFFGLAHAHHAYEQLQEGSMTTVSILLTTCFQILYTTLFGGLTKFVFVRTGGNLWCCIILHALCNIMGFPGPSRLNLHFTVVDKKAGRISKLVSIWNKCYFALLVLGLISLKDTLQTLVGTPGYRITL
# [16] = molecular target: T4, Hexokinase (Trypanosoma brucei, UniProt Q38C41); assay: Confirmation assay for inhibitors of Trypanosoma brucei hexokinase 1-Analogue-first series. [Related pubchem assays (depositor defined):AID1430, AID1632, AID2516, AID2560, AID2579, AID2600, AID449725, AID492951]; format: functional
# T4 sequence (Q38C41 whole entry): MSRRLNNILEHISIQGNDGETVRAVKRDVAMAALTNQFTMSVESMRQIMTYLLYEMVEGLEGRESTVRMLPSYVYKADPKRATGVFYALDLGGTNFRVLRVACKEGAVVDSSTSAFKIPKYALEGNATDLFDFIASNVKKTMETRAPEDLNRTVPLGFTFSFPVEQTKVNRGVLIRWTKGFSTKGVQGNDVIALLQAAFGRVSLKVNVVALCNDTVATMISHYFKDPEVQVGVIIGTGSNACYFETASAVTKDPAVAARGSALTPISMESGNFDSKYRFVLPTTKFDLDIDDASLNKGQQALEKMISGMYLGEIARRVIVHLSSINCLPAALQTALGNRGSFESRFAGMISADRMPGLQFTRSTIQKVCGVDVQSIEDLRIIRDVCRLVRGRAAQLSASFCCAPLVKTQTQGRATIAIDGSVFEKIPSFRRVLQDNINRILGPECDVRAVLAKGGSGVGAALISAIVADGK
# [17] = test system: Streptococcus sp. 'group A'; assay: growth inhibition of control SK(-) GAS strain, dose response, counter-screen for streptokinase expression inhibitor project, luminescence, kanamycin, BacTiterGlo, confirmation (AID 1900); format: functional, organism-based
# [18] = molecular target: T5, Streptokinase A (Streptococcus pyogenes serotype M1, UniProt P10520); assay: S. pyogenes streptokinase expression inhibitors, potency, dose response, plasminogen activation absorbance, OD405 (AID 1914); format: functional, Streptococcus pyogenes M1 GAS;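 note: secreted streptokinase activity via plasminogen activation per viability signal from cell pellet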
# T5 sequence (P10520 whole entry): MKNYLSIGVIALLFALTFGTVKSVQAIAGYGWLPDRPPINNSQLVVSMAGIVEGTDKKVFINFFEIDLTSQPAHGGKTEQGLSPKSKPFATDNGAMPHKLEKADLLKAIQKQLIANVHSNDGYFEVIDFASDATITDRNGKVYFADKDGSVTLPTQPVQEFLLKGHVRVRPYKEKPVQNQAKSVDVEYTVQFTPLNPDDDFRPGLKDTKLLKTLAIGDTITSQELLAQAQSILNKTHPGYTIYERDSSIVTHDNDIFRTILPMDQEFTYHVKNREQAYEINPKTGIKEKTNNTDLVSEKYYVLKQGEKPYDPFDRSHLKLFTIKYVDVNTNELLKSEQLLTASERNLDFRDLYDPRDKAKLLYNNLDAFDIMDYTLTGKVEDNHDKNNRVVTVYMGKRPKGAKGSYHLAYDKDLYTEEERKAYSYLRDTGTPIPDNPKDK
# [19] = microbe, parasite or virus in culture; format: functional; conditions: Mycobacterium tuberculosis
# [20] = test system: Streptococcus; assay: Group A Streptococcus viability loss, dose response, counter-screen for streptokinase expression inhibitor project, luminescence, BacTiterGlo (AID 1915); format: functional, organism-based;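 note: potency for reduction of bacterial viability or growth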
# [21] = molecular target: Neurotensin receptor type 1 (Homo sapiens, UniProt P30989); format: functional;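 note: Image-based confirmatory dose-response assay measuring agonist activity at NTR1; NTR1-expressing U2OS osteosarcoma cells imaged for beta-arrestin GFP spot formation; agonist potency where compounds increase beta-arrestin recruitment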
# [22] = molecular target: T6, Microphthalmia-associated transcription factor (Homo sapiens, UniProt O75030); assay: TRPM1 promoter luciferase signal decrease, dose response, MITF inhibitor project, cell-based, SK-MEL-5, cherry-picked, set 3 (AID 493073); format: functional
# T6 sequence (O75030 whole entry): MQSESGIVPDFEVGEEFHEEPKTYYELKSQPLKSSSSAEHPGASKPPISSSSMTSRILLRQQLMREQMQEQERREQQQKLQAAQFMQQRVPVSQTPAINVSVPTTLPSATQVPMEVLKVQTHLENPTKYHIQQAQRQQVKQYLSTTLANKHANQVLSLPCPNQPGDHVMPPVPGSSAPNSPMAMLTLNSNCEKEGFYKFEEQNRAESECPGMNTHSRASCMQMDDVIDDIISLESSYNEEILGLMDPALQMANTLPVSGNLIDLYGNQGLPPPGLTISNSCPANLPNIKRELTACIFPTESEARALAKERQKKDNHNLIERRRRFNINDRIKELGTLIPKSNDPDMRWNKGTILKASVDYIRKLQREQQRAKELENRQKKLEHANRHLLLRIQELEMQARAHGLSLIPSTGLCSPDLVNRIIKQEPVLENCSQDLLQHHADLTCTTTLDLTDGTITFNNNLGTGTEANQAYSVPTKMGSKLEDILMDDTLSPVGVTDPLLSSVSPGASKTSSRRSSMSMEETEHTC
# [23] = molecular target: Nonstructural protein 1 (Influenza A virus, UniProt Q194T2); format: functional, Influenza A virus (A/California/07/2009(H1N1))
# [24] = test system: Vero; assay: Vero cell cytotoxicity, cytotoxicity control for flavivirus capping enzyme inhibitors (AID 588742); format: functional; conditions: Chlorocebus sabaeus
# [25] = test system: Vero; assay: cells; format: functional; conditions: Chlorocebus sabaeus
# [26] = molecular target: Genome polyprotein (dengue virus type 2, UniProt P29990); assay: Dengue-2 NS5 methyltransferase inhibitors, primary screen, biochemical, confirmation dose response (AID 588689); format: functional
# [27] = molecular target: T7, Phosphoethanolamine/phosphocholine phosphatase (Homo sapiens, UniProt Q8TCT1); assay: SAR assay for compounds that inhibit PHOSPHO1. [Related pubchem assays (depositor defined):AID1545, AID1565, AID1574]
# T7 sequence (Q8TCT1 whole entry): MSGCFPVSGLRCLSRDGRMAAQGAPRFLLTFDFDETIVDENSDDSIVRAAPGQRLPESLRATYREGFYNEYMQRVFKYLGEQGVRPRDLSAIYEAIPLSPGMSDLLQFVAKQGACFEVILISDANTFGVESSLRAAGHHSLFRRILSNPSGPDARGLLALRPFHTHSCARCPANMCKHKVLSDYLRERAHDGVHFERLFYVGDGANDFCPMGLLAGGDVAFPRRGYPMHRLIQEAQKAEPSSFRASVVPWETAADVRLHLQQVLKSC
# [28] = test system: HEK293; assay: NOD1 signaling inhibitors, primary screen, cell-based, luminescence, uHTS (AID 1578); format: functional; conditions: Homo sapiens
# [29] = test system: HEK293; assay: cells; format: functional, cell-based; conditions: Homo sapiens
# [30] = test system: HEK293; assay: cells; format: functional, cell-based; conditions: Homo sapiens; remark: listed apart in the source
# [31] = molecular target: NS3 (Hepatitis C virus, UniProt A3EZJ3); assay: PubChem AID 2173; parameters: species or system Hepacivirus hominis
# [32] = molecular target: Nucleotide-binding oligomerization domain-containing protein 2 (Homo sapiens, UniProt Q9HC29); assay: NOD2 signaling inhibitors, cell-based, luminescence, uHTS, HEK293 (AID 1566); format: functional
# [33] = test system: HEK293; assay: cells; format: functional, cell-based; conditions: Homo sapiens; remark: listed apart in the source
# Voltage-dependent T-type calcium channel subunit alpha-1H, sequence (O95180 whole entry): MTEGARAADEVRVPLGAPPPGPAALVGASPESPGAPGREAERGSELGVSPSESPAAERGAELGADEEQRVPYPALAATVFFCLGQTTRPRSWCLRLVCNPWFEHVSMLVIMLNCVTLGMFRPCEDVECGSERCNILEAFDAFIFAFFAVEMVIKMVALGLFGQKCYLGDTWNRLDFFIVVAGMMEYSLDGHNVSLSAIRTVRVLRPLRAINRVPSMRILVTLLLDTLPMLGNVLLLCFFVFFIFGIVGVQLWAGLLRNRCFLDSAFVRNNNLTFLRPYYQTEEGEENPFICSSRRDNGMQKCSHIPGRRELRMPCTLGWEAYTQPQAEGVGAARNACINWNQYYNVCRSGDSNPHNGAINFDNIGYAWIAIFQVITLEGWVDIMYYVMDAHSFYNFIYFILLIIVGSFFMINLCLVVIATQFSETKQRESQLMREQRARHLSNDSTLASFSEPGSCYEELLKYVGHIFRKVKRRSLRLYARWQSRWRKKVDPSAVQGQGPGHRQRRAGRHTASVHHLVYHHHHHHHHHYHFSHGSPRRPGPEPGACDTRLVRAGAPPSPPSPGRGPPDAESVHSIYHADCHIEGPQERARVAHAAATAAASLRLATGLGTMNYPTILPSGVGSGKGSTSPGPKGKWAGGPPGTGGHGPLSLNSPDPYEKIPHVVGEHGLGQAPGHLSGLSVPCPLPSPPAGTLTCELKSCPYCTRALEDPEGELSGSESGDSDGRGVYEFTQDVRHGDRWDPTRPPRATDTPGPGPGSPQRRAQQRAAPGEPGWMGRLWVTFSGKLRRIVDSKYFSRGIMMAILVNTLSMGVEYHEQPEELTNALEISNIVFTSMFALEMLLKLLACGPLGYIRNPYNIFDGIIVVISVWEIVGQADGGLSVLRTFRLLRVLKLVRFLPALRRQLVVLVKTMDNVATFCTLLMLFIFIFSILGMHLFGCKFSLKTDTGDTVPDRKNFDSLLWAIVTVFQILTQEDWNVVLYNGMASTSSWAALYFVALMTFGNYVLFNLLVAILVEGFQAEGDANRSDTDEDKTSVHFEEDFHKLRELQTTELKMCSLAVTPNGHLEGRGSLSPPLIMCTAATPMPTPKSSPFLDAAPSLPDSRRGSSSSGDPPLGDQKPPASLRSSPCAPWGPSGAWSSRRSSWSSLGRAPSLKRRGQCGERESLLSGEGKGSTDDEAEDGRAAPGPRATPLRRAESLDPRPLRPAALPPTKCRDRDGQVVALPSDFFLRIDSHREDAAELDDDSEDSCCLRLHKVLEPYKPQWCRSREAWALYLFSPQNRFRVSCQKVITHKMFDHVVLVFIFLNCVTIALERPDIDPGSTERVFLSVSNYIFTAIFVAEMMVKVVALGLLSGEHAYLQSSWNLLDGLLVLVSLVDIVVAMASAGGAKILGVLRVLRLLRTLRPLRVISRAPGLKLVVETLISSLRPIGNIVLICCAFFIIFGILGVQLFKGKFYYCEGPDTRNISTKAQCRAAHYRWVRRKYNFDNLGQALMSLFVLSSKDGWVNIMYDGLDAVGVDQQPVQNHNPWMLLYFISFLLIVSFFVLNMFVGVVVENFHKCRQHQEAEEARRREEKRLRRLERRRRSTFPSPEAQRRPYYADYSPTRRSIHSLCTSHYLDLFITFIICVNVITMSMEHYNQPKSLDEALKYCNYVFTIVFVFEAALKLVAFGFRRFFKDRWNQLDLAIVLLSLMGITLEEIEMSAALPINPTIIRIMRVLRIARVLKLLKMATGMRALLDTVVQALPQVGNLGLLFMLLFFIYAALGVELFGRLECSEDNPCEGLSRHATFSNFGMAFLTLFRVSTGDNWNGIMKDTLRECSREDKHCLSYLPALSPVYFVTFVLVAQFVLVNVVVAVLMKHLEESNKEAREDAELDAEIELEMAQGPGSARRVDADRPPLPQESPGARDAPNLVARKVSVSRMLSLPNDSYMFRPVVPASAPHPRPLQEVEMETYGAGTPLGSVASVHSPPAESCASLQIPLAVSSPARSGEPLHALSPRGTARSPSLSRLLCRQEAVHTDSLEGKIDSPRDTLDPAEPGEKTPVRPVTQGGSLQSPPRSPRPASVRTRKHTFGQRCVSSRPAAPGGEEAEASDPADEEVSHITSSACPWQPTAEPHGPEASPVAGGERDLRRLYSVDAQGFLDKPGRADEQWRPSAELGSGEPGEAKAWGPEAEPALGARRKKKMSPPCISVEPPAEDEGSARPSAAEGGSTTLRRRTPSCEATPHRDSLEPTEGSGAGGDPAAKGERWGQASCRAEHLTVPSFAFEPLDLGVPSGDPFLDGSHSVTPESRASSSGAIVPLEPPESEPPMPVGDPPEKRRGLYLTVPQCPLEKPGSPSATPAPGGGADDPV
# Neurotensin receptor type 1, sequence (P30989 whole entry): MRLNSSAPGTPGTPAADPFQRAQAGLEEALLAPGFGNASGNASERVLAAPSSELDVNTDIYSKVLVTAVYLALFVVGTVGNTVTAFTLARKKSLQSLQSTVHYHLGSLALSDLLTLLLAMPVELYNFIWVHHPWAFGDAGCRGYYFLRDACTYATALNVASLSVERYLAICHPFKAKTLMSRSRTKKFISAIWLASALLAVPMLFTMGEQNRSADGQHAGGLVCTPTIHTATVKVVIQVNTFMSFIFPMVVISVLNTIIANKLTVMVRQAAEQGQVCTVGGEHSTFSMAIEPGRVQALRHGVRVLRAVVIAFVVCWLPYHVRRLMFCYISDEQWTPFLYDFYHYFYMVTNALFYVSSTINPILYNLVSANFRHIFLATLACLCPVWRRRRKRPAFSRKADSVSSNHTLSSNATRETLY
# Luciferin 4-monooxygenase, sequence (P08659 whole entry): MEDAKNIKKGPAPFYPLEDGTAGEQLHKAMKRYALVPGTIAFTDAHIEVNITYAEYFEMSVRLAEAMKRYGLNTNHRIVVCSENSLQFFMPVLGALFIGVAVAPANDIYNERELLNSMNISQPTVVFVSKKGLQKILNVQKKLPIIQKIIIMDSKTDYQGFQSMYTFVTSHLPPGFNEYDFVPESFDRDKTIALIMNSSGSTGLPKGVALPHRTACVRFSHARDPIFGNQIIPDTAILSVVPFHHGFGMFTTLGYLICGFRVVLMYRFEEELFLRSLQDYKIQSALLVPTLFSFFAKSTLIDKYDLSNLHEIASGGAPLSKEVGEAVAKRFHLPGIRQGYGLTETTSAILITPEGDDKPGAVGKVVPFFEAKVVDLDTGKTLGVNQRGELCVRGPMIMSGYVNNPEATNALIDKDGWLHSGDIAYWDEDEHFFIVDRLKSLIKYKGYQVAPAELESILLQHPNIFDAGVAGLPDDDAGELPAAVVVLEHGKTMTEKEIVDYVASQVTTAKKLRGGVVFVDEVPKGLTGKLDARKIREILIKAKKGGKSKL
# Nucleotide-binding oligomerization domain-containing protein 2, sequence (Q9HC29 whole entry, the tested form may be a part): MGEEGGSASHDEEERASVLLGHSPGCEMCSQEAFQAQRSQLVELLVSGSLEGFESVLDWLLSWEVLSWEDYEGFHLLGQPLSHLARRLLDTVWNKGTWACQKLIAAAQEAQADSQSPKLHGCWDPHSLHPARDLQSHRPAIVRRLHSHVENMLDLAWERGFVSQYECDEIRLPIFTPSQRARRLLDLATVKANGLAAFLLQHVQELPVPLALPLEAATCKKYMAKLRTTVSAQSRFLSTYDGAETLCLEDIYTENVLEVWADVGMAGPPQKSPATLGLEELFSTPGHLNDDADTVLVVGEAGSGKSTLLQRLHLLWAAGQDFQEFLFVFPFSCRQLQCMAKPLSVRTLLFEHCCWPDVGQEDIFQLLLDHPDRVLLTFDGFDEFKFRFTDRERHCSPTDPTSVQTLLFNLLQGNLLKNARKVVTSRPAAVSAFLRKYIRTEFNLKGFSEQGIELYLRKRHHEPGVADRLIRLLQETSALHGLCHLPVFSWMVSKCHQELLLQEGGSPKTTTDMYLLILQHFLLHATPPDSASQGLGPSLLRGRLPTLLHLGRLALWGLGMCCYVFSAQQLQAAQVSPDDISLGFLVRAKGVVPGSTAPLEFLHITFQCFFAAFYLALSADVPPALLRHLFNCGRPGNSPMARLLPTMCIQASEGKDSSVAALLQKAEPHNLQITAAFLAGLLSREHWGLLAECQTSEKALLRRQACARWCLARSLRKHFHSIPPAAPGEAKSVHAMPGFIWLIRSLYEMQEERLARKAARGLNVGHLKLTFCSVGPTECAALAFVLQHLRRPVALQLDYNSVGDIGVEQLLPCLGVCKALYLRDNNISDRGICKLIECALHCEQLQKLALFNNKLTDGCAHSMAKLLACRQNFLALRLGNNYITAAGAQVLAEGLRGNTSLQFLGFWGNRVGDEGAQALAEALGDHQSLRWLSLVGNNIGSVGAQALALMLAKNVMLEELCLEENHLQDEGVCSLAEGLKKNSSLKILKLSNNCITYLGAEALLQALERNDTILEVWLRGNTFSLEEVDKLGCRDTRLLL
# DNA dC->dU-editing enzyme APOBEC-3G, sequence (Q9HC16 whole entry): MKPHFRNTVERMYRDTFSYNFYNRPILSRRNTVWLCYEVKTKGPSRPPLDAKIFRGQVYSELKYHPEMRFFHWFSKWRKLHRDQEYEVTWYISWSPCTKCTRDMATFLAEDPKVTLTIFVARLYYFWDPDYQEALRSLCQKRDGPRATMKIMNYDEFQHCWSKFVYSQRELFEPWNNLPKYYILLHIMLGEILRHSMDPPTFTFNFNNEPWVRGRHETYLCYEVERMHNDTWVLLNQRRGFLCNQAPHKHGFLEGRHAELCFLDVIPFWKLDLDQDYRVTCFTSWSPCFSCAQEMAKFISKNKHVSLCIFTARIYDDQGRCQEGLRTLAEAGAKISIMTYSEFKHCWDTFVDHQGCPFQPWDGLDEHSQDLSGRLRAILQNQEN
# Nonstructural protein 1, sequence (Q194T2 whole entry): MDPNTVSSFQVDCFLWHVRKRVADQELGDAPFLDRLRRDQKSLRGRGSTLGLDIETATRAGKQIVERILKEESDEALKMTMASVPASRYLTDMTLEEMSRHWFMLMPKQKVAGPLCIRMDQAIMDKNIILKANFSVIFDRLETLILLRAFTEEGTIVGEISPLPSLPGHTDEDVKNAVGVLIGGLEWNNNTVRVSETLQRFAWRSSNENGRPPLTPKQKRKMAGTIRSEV
compound,measurement,setting,value
COc1ccc(CNC(=O)CSCc2cnn(-c3ccccc3)c2-n2cccc2)cc1,EC50,[1],4.8 µM (active)
O=[N+]([O-])c1ccc2[nH]c(-c3ccccn3)nc2c1,CC50,[2],13.4 µM (active)
same,CC50,[3],17.4 µM (active)
same,CC50,[4],14.8 µM (active)
same,IC50,[5],42.1 µM (active)
CC(C)N1CCc2c(sc(NC(=O)c3cc(-c4cccs4)nc4ccccc34)c2C(N)=O)C1,CC50,[6],6.25 µM (active)
same,EC50,[7],> 40 µM (inactive)
same,IC50,[8],> 40 µM (not active)
same,AC50,[9],13.2 µM (active)
same,IC50,[10],> 20 µM (inactive)
CCn1c(S)nnc1-c1ccc([N+](=O)[O-])cc1,AC50,[11],239 µM (active)
same,IC50,[12],9.77 µM (active)
COc1ccc(C(=O)ON=C(N)c2ccccc2)cc1,EC50,[13],1.21 µM (active)
same,AC50,[14],17.2 µM (active)
O=C(COC(=O)c1ccccc1Cc1ccccc1)NC1CCS(=O)(=O)C1 (stereo not drawn),AC50,[15],4.52 µM (active)
CCOc1ccc(C(=O)Nc2cc(Cl)ccc2C(=O)O)cc1,IC50,[16],20.7 µM (active)
Cc1ccc(S(=O)(=O)N2CCCC(NC(=O)N3CCN(c4ccccc4)CC3)C2)cc1 (stereo not drawn),EC50,[1],8.79 µM (active)
N#CC1=C(c2ccccc2)/C(=C/c2ccccc2)OC1=O,EC50,[17],10.6 µM (active)
same,EC50,[18],2.38 µM (active)
same,CC50,[19],24.1 µM (active)
same,EC50,[20],> 150 µM (not active)
same,CC50,[2],> 40 µM (active)
same,CC50,[4],> 20 µM (active)
same,EC50,[21],6.66 µM (active)
same,AC50,[22],4.25 µM (active)
same,IC50,[5],10 µM (active)
CCOC(=O)c1cc(-c2ccc(/C=C3/C(=O)N(c4ccc(C(=O)O)cc4)N=C3C)o2)ccc1Cl,EC50,[21],16 µM (active)
same,IC50,[23],66.1 µM (active)
same,CC50,[24],24.9 µM (active)
same,CC50,[25],> 25 µM (active)
same,IC50,[26],21.2 µM (active)
COC(=O)c1ccc(Cl)cc1NS(=O)(=O)c1ccc(OC)cc1,IC50,[16],> 25 µM (inactive)
COC(=O)/C(=C\Nc1ccc(Cl)cc1Cl)NC(=O)c1ccc(Cl)cc1Cl,CC50,[6],> 40 µM (active)
COc1ccccc1CC(=O)Nc1ccc2c(C)cc(=O)oc2c1,AC50,[15],34.5 µM (active)
COc1ccc(-n2sc3cc(F)ccc3c2=O)cc1,IC50,[27],5.42 µM (inactive)
COc1ccccc1OCCCOc1cccc(/C=C2\SC(=O)NC2=O)c1,EC50,[28],9.43 µM (active)
same,IC50,[29],15.7 µM (active)
same,IC50,[30],> 20 µM (inactive)
same,IC50,[31],3.82 µM (active)
same,EC50,[32],9.15 µM (active)
same,IC50,[33],> 20 µM (inactive)
O=C(NCc1ccccc1)n1sc2ccccc2c1=O,IC50,[16],4.44 µM (active)
CCNc1nc(NC(C)(C)C)nc(N2CCCCC2)n1,CC50,[19],13.4 µM (active)
same,CC50,[2],> 40 µM (active)
same,CC50,[3],> 20 µM (active)
same,IC50,[5],28.8 µM (active)
same,CC50,[25],> 25 µM (active)
Cc1ccc(NC(=O)CSc2nnc(Cc3cccn3C)n2-c2ccc(F)cc2)cc1,EC50,[1],3.49 µM (active)
